Source: patent publication US20250270507A1, “METHODS FOR PRODUCING CARTILAGE AND BONES” (Murdoch Children's Research Institute, priority 2021, published 2025)

Key:
[1] = system: iPSC-derived chondronoids (MCRIi019-A and MCRIi018-B); test: Chondronoid maturation to hypertrophy with T3; type: cell-based, human
Description: Triiodothyronine (T3) is crucial for chondrocyte hypertrophy (Aghajanian et al., 2017) thus in some experiments differentiated chondrocytes were treated with 10 nM T3 (Sigma-Aldrich) for 10-21 days to induce chondrocyte hypertrophy. From day 20 (after 2 weeks of FGF2 treatment), differentiation/maturation continued in APEL2/5% PFHM (without FGF2) with medium replaced every 2-3 days. T3 was added when the pellets had consistent and even cartilage histology, which ranged between 4 and 6 weeks post-sclerotome chondrocyte differentiation. In some experiments, pellets were briefly treated with 0.25% trypsin/EDTA for 4 min at 37° C. with agitation to remove the small amount of non-cartilage tissue that occasionally remained on the surface of the chondrocyte pellets. These were allowed to recover in chondrocyte medium (APEL2/5% PFHM) for 1 week before analysis and/or T3 treatment and continued maturation.
(§1) Cultured and in vivo grafted pellet organoids were fixed overnight at 4° C. in Confix (Australian Biostain) neutral-buffered formalin, then […] washed in 70% ethanol, and paraffin-embedded. After fixing, some in vivo grafted pellets were washed in water for 10 minutes then decalcified in 14% EDTA, pH 7.4 at 4° C. for 5 days before embedding. Serial 5 μm sections cut from the pellet centers were mounted on Superfrost Plus slides (Menzel-Gläser) and heated at 55° C. overnight. Sections were treated with xylene to remove the paraffin wax and an ethanol series comprising 100%, 90%, 70%, 50% ethanol then water to rehydrate the sections. Sections were stained with toluidine blue to detect a cartilage proteoglycan matrix or safranin O/fast green for cartilage and bone following standard protocols. Osteogenic pellet sections were also stained with von Kossa to detect mineralization. Images were captured using a Leica DM 2000 LED microscope with Leica Application Suite (LAS) software version 4.9.0 or Zeiss Axio Imager Z2 with Zen 3.1 Blue Edition software.
Formalin fixed and paraffin-embedded sections were immunostained for collagen II (MAB8887; Sigma-Aldrich; 1:150 dilution), collagen I (LF68; Kerafast ENH018-FP; 1:100), collagen X (Cameron et al., 2015) (1:100), PRG4 (clone 9G3; Merck) (1:100) and Ku80 (Cell Signaling) (1:300). For collagen II staining, antigen retrieval used 2 mg/ml porcine pepsin (Sigma) freshly prepared in 1 M Tris/HCl, pH 2.0 for 30 minutes at 37° C., followed by digestion for 30 minutes at 37° C. with 0.2% hyaluronidase (Sigma-Aldrich) in PBS. Collagen X antigen retrieval involved heating to 60° C. in 10 mM Tris/1 mM EDTA/0.05% Tween-20, pH 9.0 (Tris/EDTA) for 30 min, cooling to room temperature for 30 minutes, followed by hyaluronidase digestion and collagen I and Ku80 staining followed antigen retrieval at 60° C. in Tris/EDTA as above. Sections to be stained with Ku80 were then permeabilized with 0.05% Triton X-100. Sections were blocked with 3% BSA in PBS for 1 hour at room temperature, then incubated with primary antibodies in 1% BSA in PBS for 16 hours at 4° C. Appropriate species specific Alexa Fluor 488 and 594 secondary antibodies (ThermoFisher) were diluted 1:200 in 1% BSA in PBS with 2.5 μg/ml DAPI, and sections incubated for 1 hour at room temperature. Slides were washed with PBS and coverslips mounted using Shandon Immumount (ThermoFisher). Images were captured as described above. For collagen X intracellular colocalization studies sections were treated with 0.2% hyaluronidase at 37° C. for 30 minutes then permeabilized with 0.05% Triton X-100. The collagen X antibody was used at 1:100, 58K (PA1-9000; ThermoFisher) at 1:50, GRP94 (PA5-18534; ThermoFisher) 1:200 and LAMP2 (ab25631; Abcam) 1:50. Images were captured on a Zeiss LSM900 Airyscan 2 confocal microscope with Zen 3.1 Blue Edition software. […]

MCRIi001-A-2 organoids = test: Osteogenic differentiation conditions in a second iPSC line; type: cell-based, human; settings: 10 nM T3 for 14 days before osteogenic culture; both osteogenic conditions
Description: Hypertrophic chondrocytes can transdifferentiate into osteoblasts and osteocytes in vivo (Yang et al., 2014; Zhou et al., 2014). To recapitulate this later stage of endochondral bone formation in vitro, hypertrophic chondrocyte pellets in orbital culture were rinsed in PBS then cultured in DMEM, high glucose, GlutaMAX Supplement, pyruvate (ThermoFisher), 20% FBS (ThermoFisher), 10 mM β-glycerophosphate, 50 μg/ml ascorbic acid 2-phosphate, 50 μg/ml sodium ascorbate, 100 nM dexamethasone (osteogenic differentiation media) for up to three weeks. […] Media was replaced every 2-3 days.
as §1, with “Osteogenic pellet sections were also stained with von Kossa to detect mineralization. Images were captured using a Leica DM 2000 LED microscope with Leica Application Suite (LAS) software version 4.9.0 or Zeiss Axio Imager Z2 with Zen 3.1 Blue Edition software.” left out

[2] = T3 from day 48 to day 69, RNAseq

## N[C@@H](Cc1cc(I)c(Oc2ccc(O)c(I)c2)c(I)c1)C(=O)O [T3, Triiodothyronine]
[1]; T3 from day 48 to day 69
  spontaneous maturation to hypertrophic chondrocytes: enhanced
[1]; [2]
  expression of canonical cartilage genes (COL2A1, COL9A1, COL11A1, SOX9, SOX6, SOX5): downregulated
  expression of late hypertrophic cartilage markers (VEGFA, DMP1, HIF1A, MMP13, ALPL): enhanced expression
[1]; compared with spontaneous hypertrophy
  expression of ALPL, FOSL2, VEGFA, BMP7 and DMP1: only upregulated after stimulation
[1]; day 69
  chondronoid appearance by histology and immunostaining: appeared similar with and without T3
[1]; day 69+T3, core matrisome RNAseq
  expression of sentinel cartilage genes (COL11A1, COL9A1, COL9A2, COL9A3, EPYC, MATN1, LUM, COMP, EDIL3): downregulated
MCRIi001-A-2 organoids
  von Kossa staining in organoids pre-treated v not pre-treated: more extensive and more intense von Kossa staining
